Consider three compounds from US7323490B2, “Pyrrole compounds and uses thereof” (Ambit Biosciences Corporation, priority 2003, dated 2008).

One assay has as its system focal cerebral ischemia. Description: Rat MCAO model, time schedules of administration (Example 11). It is filed as in vivo. Conditions: 25 hrs post, 48 h. How it is done: The compounds were tested on a standardized rodent focal cerebral ischemia model produced by permanent occlusion of the right middle cerebral artery (MCA) plus one hour of tandem carotid artery occlusion according to Chen et al. A total of 96 animals underwent MCAo using subcutaneous administration of all test articles, according to the experimental design illustrated in Table 5 below. Three compounds at one predetermined dose were compared to vehicle and assigned to three different time schedules of administration relative to the time of MCAo. […] The time schedules for administration of all treated groups were divided as follows:
A second group of eighteen animals were used to test compound A (782236) using the treatment schedule, shown (a, b & c) above via intravenous (I.V.) administration. Groups of n=5 animals per treatment time period with compound A and 3 animals per control group via tail vein.
Animal Preparation and Middle Cerebral Artery Occlusion. Male, adult, Sprague-Dawley rats (Charles River), weighing 300-400 grams, were used for the study. All animals were acclimated at least for five days before entering the study. Animals were housed in a standard animal facility and fed with commercial rodent chow ad libitum. All animals were anesthetized via intramuscular injection (4 mL/kg) of “cocktail” containing ketamine (25 mg/mL), xylazine (1.3 mg/mL) and acepromazine (0.33 mg/mL). Both carotid arteries were separated with great caution to minimize the vagal nerve stimulation. The right proximal MCA trunk was exposed through a subtemporal craniectomy without transecting the facial nerve. […] Immediately following MCA occlusion, both of the common carotid arteries were occluded for 1 hour using surgical aneurysm micro-clips (ROBOZ INC). Animals were put into temperature regulated recovery chamber for 1 hour before the clips were removed from the common carotid arteries. Body temperature was maintained at 37±0.5° C. during the surgery using a heating blanket connected to a temperature controller.
Experimental Groups and Compound Administration. A total of 96 animals underwent MCAo using subcutaneous administration of all test articles, according to the experimental design illustrated in Table 5 below. Three compounds at one predetermined dose were compared to vehicle and assigned to three different time schedules of administration relative to the time of MCAo. […] The time schedules for administration of all treated groups were divided as follows:
A second group of eighteen animals were used to test compound A (782236) using the treatment schedule, shown (a, b & c) above via I.V. administration. Groups of n=5 animals per treatment time period with compound A and 3 animals per control group via tail vein.
Infarct Measurement. Forty-eight hours following MCAo, animals were euthanized with inhalation of CO2. Brains were removed and chilled in ice saline for 10 min. The brains were put in a metal rodent brain slicer. Each rat brain was cut coronally into 7 sections, with each section being 2 mm thick. The brain sections were immersed in 2% TTC solution for 30 min at 37° C. The areas of cerebral infarcts were determined on seven slices, using a computer-interfaced imaging system, Image-Pro® Plus, Version 4.4 for Windows (Media Cybernetics, MD). Infarct areas were then summed among slices and multiplied by slice thickness to give the total infarct volume.
Statistics. All data are expressed as mean±SEM. In Section A, infarct volume was analyzed using Student t Test. A p value of ≦0.05 was considered a statistically significant difference. All statistical analyses were performed with the software package JMP version 4.0 (SAS Institute Inc., Cary, N.C.).

The subject of assay [1] is focal cerebral infarcts (MCAo). Description: Body swing test, Tamura MCAo model. It is filed as in vivo, rat. On the set-up: unit not given here. Conditions: AVG. An excerpt: Surgical Preparation. Middle Cerebral Artery Occlusion (MCAo), Tamura Model. Focal cerebral infarcts were made by permanent occlusion of the proximal right middle cerebral artery using a modification of the method of Tamura et al. […] The temporalis muscle was bisected and reflected through an incision made midway between the eye and the eardrum canal. The proximal MCA was exposed through a subtemporal craniectomy without removing the zygomatic arch and without transecting the facial nerve. […] Animals were euthanatized at various time periods after MCA occlusion and the brains are removed for histological analysis. Behavioral Analysis. Two behavioral tests were performed, the limb placing and body swing test. […] Body Swing Test. The animal was held approximately 1 inch from the base of its tail. It was then elevated to an inch above a surface of a table. The animal was held in the vertical axis, defined as no more than 10° to either the left or the right side. A swing was recorded whenever the animal moves its head out of the vertical axis to either side. Before attempting another swing, the animal must return to the vertical position for the next swing to be counted. Thirty total swings were counted. A normal animal typically has an equal number of swings to either side. Following focal stroke, the animal tends to swing to the contralateral side. There is a slow spontaneous recovery of body swing during the first month after stroke. Experimental Groups and Compound Administration. A total of 80 animals underwent MCAo using subcutaneous administration of all test articles, according to the experimental design illustrated in Table 16. […] All animals were treated with the compound(s)/vehicle(s) as a blinded random investigation. The dose and route of administration is given below in Table 16.

Where [2] appears, read: SC, schedule a: 2 hrs pre, 3 hrs post, doses per Table 5 (782236 1/0.5/0.5, others 10/5/5 mg/kg).
[3] abbreviates: SC, schedule b: 1 hr post, 3 hrs post, doses per Table 5.
The mark [4] stands for this setting: SC, schedule c: 3 hrs post, 6 hrs post, doses per Table 5.
Setting [5] is: administered six hours after MCAo.
Where [6] appears, read: administered three hours after MCAo.

Each structure is given as a SMILES string.

Consider `CC(C)c1[nH]c(-c2ccc(F)cc2)c(-c2ccccc2)c1C(=O)Nc1ccccc1` [Compound 781430], for which, in the assay on focal cerebral ischemia (setting [2]), the infarction volume amounted to 78.89±28.46 mm^3. The compound also registered an infarction volume with focal cerebral ischemia (setting [3]) of 96.51±31.62 mm^3. Also, the infarction volume in the assay on focal cerebral ischemia (setting [4]) is on record as 121.39±22.53 mm^3. In assay [1] (setting [5]), the “Body swing test score, D0” value was found to be 50; the “Body swing test score, D1” value is on record as 19; the “Body swing test score, D3” value is 22; the “Body swing test score, D7” value is recorded as 23. In addition, in assay [1] (setting [6]), the “Body swing test score, D0” value was 50; the “Body swing test score, D1” value is on record as 31; the “Body swing test score, D3” value amounted to 43; the “Body swing test score, D7” value is listed as 44.
For `CC(C)c1c(C(=O)Nc2ccccc2)c(-c2ccccc2)c(-c2ccc(F)cc2)n1CC(O)C(O)C(O)C(O)CO` (stereo not drawn) [Compound 782236], the infarction volume with focal cerebral ischemia (IV, schedule a: 2 hrs pre, 3 hrs post, 1/0.5/0.5 mg/kg) was 186.8±9.2 mm^3; with focal cerebral ischemia (IV, schedule b: 1 hr post, 3 hrs post) it was 122.8±17.9 mm^3; with focal cerebral ischemia (IV, schedule c: 3 hrs post, 6 hrs post), 73.8±18.1 mm^3; in the assay on focal cerebral ischemia (setting [2]) it was 138.6±35.13 mm^3; in the assay with focal cerebral ischemia (setting [3]) it was 171.04±33.04 mm^3; with focal cerebral ischemia (setting [4]), 155.53±29.66 mm^3. Also, the “Body swing test score, D0” value in assay [1] (setting [5]) and in assay [1] (setting [6]) was 50 in each case. Moreover, the “Body swing test score, D1” value in assay [1] (setting [5]) worked out at 7; in assay [1] (setting [6]), 8. Further, the “Body swing test score, D3” value in assay [1] (setting [5]) came out at 9; in assay [1] (setting [6]), 27. The “Body swing test score, D7” value in assay [1] (setting [5]) came out at 23; in assay [1] (setting [6]) it was 37.
As for `CC(C)c1c(C(=O)Nc2ccccc2)c(-c2ccccc2)c(-c2ccc(F)cc2)n1CC[C@@H](O)C[C@@H](O)CC(=O)O` [atorvastatin, reference compound], the values for the infarction volume in the assay on focal cerebral ischemia (setting [2]), with focal cerebral ischemia (setting [3]) and in the assay with focal cerebral ischemia (setting [4]) were 80.35±30.41 mm^3, 121.52±22.58 mm^3 and 127.16±25.77 mm^3, respectively. Also, the “Body swing test score, D0” value in assay [1] (setting [5]) and in assay [1] (setting [6]) was 50 throughout. The entries for the “Body swing test score, D1” value in assay [1] (setting [5]) and in assay [1] (setting [6]) were 19 and 13, respectively. Moreover, the “Body swing test score, D3” value in assay [1] (setting [5]) was 17; in assay [1] (setting [6]), 28. The “Body swing test score, D7” value came to 19 in assay [1] (setting [5]) and 41 in assay [1] (setting [6]).
